Test results published in patent US9695155B2, “Herbicidal substituted pyrimidinyloxy benzene compounds” (E. I. DU PONT DE NEMOURS AND COMPANY, priority 2013, dated 2017).

What was measured:
blackgrass = assay: Test C preemergence; assay type: in vivo, Alopecurus myosuroides; details: Alopecurus myosuroides, pre-emergence
Method in brief: (§1)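 Whole-plant greenhouse test with surfactant-containing solvent formulation, applied preemergence to sown loam–sand pots or postemergence to 2–18 cm plants. Scored by eye 13 to 15 days on, 0–100 scale.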

waterhemp = assay: Test C postemergence; assay type: in vivo, Amaranthus rudis
Method in brief: as §1

oilseed rape = assay: Test C postemergence; assay type: in vivo, Brassica napus
Method in brief: as §1

johnsongrass [1] = assay: Test C postemergence; assay type: in vivo, Sorghum halepense
Method in brief: as §1

corn = assay: Test C postemergence; assay type: in vivo, Zea mays; details: Zea mays, post-emergence
Method in brief: as §1

pigweed [2] = assay: Test A preemergence; assay type: in vivo, Amaranthus retroflexus
Method in brief: (§2)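 Visual injury scored 0–100 (100 = complete control) against untreated controls about 10 days after treatment in a greenhouse. Test chemicals, formulated with surfactant in non-phytotoxic solvent, were sprayed on soil preemergence or on 2-10 cm, one- to two-leaf plants postemergence.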

ragweed = assay: Test C preemergence; assay type: in vivo, Ambrosia elatior; details: Ambrosia artemisiifolia, pre-emergence, preemergence, read-out: Ragweed plant response rating
Method in brief: as §1

johnsongrass [3] = assay: Test C preemergence; assay type: in vivo, Sorghum halepense; details: Sorghum halepense, pre-emergence, preemergence, read-out: Johnsongrass plant response rating
Method in brief: as §1

velvetleaf = assay: Test C postemergence; assay type: in vivo, Abutilon theophrasti
Method in brief: as §1

large (Lg) crabgrass [4] = assay: Test C postemergence; assay type: in vivo, Digitaria sanguinalis; details: Digitaria sanguinalis, post-emergence
Method in brief: as §1

large (Lg) crabgrass [5] = assay: Test A preemergence; assay type: in vivo, Digitaria sanguinalis; details: Digitaria sanguinalis, pre-emergence, 240 h, 0 to 100 scale where 0 is no effect and 100 is complete control
Method in brief: as §2

pigweed [6] = assay: Test A postemergence; assay type: in vivo, Amaranthus retroflexus; details: Amaranthus retroflexus, post-emergence, 0 to 100 scale where 0 is no effect and 100 is complete control
Method in brief: as §2

giant foxtail [7] = assay: Test A postemergence; assay type: in vivo, Setaria faberii; details: Setaria faberi, post-emergence, 240 h, 0 to 100 scale where 0 is no effect and 100 is complete control
Method in brief: as §2

large (Lg) crabgrass [8] = assay: Test A postemergence; assay type: in vivo, Digitaria sanguinalis; details: 0 to 100 scale where 0 is no effect and 100 is complete control
Method in brief: as §2

giant foxtail [9] = assay: Test C preemergence; assay type: in vivo, Setaria faberii; details: Setaria faberi, pre-emergence
Method in brief: as §1

[10] = 31 g ai/ha, postemergence, visual rating, scale 0 to 100 (0 no effect, 100 complete control), 13 to 15 days
[11] = 16 g ai/ha, scale 0 to 100 (0 no effect, 100 complete control)
[12] = 62 g ai/ha, scale 0 (no effect) to 100 (complete control)
[13] = 125 g ai/ha, scale 0 (no effect) to 100 (complete control)

SMILES: FC(F)(F)c1cn(-c2ccccc2Oc2ncc(Cl)cn2)nn1 [Compound 166, 5-chloro-2-[2-[4-(trifluoromethyl)-1H-1,2,3-triazol-1-yl]phenoxy]pyrimidine]
- pest or weed control at 16 g/ha (blackgrass; 16 g ai/ha, preemergence, scale 0 to 100 (0 no effect, 100 complete control), read-out: Blackgrass plant response rating): 40%
- pest or weed control at 62 g/ha (blackgrass; 62 g ai/ha, preemergence, scale 0 (no effect) to 100 (complete control), read-out: Blackgrass plant response rating): 90%
- pest or weed control at 125 g/ha (blackgrass; 125 g ai/ha, preemergence, scale 0 (no effect) to 100 (complete control), read-out: Blackgrass plant response rating): 100%
- pest or weed control at 31 g/ha (blackgrass; Preemergence, 31 g ai/ha, scale 0 to 100, 0 no effect, 100 complete control, read-out: Plant response rating, Blackgrass): 85%
- Waterhemp plant response rating (waterhemp; [10]): 85
- pest or weed control at 16 g/ha (waterhemp; Amaranthus tuberculatus, post-emergence, 16 g ai/ha, postemergence, 0 is no effect, 100 is complete control, read-out: Plant response rating (0 to 100), Waterhemp): 75%
- pest or weed control at 125 g/ha (waterhemp; Amaranthus tuberculatus, post-emergence, 125 g ai/ha, postemergence, visual rating, scale 0 to 100 (0 no effect, 100 complete control), read-out: Plant response rating, Waterhemp): 90%
- pest or weed control at 62 g/ha (waterhemp; Amaranthus tuberculatus, post-emergence, Postemergence, 62 g ai/ha, scale 0 to 100 (0 no effect, 100 complete control), read-out: Plant response rating, Waterhemp): 90%
- Oilseed Rape plant response rating (oilseed rape; [10]): 90
- plant injury at 16 g/ha (oilseed rape; Brassica napus, post-emergence, 16 g ai/ha, postemergence, 0 is no effect, 100 is complete control, read-out: Plant response rating (0 to 100), Oilseed Rape): 60%
- plant injury at 125 g/ha (oilseed rape; Brassica napus, post-emergence, 125 g ai/ha, postemergence, visual rating, scale 0 to 100 (0 no effect, 100 complete control), read-out: Plant response rating, Oilseed Rape): 98%
- plant injury at 62 g/ha (oilseed rape; Brassica napus, post-emergence, Postemergence, 62 g ai/ha, scale 0 to 100 (0 no effect, 100 complete control), read-out: Plant response rating, Oilseed Rape): 95%
- Johnsongrass plant response rating (johnsongrass [1]; [10]): 5
- pest or weed control at 16 g/ha (johnsongrass [1]; Sorghum halepense, post-emergence, 16 g ai/ha, postemergence, 0 is no effect, 100 is complete control, read-out: Plant response rating (0 to 100), Johnsongrass): 5%
- pest or weed control at 125 g/ha (johnsongrass [1]; Sorghum halepense, post-emergence, 125 g ai/ha, postemergence, visual rating, scale 0 to 100 (0 no effect, 100 complete control), read-out: Plant response rating, Johnsongrass): 5%
- pest or weed control at 62 g/ha (johnsongrass [1]; Sorghum halepense, post-emergence, Postemergence, 62 g ai/ha, scale 0 to 100 (0 no effect, 100 complete control), read-out: Plant response rating, Johnsongrass): 5%
- plant injury at 16 g/ha (corn; 16 g ai/ha, postemergence, 0 is no effect, 100 is complete control, read-out: Plant response rating (0 to 100), Corn): 5%
- plant injury at 31 g/ha (corn; 31 g ai/ha, postemergence, visual rating, scale 0 to 100 (0 no effect, 100 complete control), 13 to 15 days, read-out: Corn plant response rating): 5%
- Corn plant response rating (crop injury, 0 = no effect, 100 = complete kill) at 125 g/ha (corn; 125 g ai/ha, postemergence, visual rating, scale 0 to 100 (0 no effect, 100 complete control)): 15%
- Corn plant response rating (crop injury, 0 = no effect, 100 = complete kill) at 62 g/ha (corn; Postemergence, 62 g ai/ha, scale 0 to 100 (0 no effect, 100 complete control)): 10%
- Pigweed plant response rating (0 to 100 scale) (pigweed [2]; 125 g ai/ha): 100
- pest or weed control at 500 g/ha (pigweed [2]; Amaranthus retroflexus, pre-emergence, 240 h, 500 g ai/ha, 0 to 100 scale where 0 is no effect and 100 is complete control, read-out: Pigweed plant response rating): 100%
- pest or weed control at 16 g/ha (ragweed; [11]): 50%
- pest or weed control at 62 g/ha (ragweed; [12]): 95%
- pest or weed control at 125 g/ha (ragweed; [13]): 95%
- pest or weed control at 16 g/ha (johnsongrass [3]; [11]): 5%
- pest or weed control at 62 g/ha (johnsongrass [3]; [12]): 85%
- pest or weed control at 125 g/ha (johnsongrass [3]; [13]): 95%
- Velvetleaf plant response rating (velvetleaf; [10]): 55
- pest or weed control at 16 g/ha (velvetleaf; Abutilon theophrasti, post-emergence, 16 g ai/ha, postemergence, 0 is no effect, 100 is complete control, read-out: Plant response rating (0 to 100), Velvetleaf): 45%
- pest or weed control at 125 g/ha (velvetleaf; Abutilon theophrasti, post-emergence, 125 g ai/ha, postemergence, visual rating, scale 0 to 100 (0 no effect, 100 complete control), read-out: Plant response rating, Velvetleaf): 85%
- pest or weed control at 62 g/ha (velvetleaf; Abutilon theophrasti, post-emergence, Postemergence, 62 g ai/ha, scale 0 to 100 (0 no effect, 100 complete control), read-out: Plant response rating, Velvetleaf): 80%
- pest or weed control at 16 g/ha (large (Lg) crabgrass [4]; 16 g ai/ha, postemergence, 0 is no effect, 100 is complete control, read-out: Plant response rating (0 to 100), Crabgrass, Large): 5%
- pest or weed control at 31 g/ha (large (Lg) crabgrass [4]; 31 g ai/ha, postemergence, visual rating, scale 0 to 100 (0 no effect, 100 complete control), 13 to 15 days, read-out: Crabgrass, Large plant response rating): 5%
- pest or weed control at 125 g/ha (large (Lg) crabgrass [4]; 125 g ai/ha, postemergence, visual rating, scale 0 to 100 (0 no effect, 100 complete control), read-out: Plant response rating, Crabgrass, Large): 15%
- pest or weed control at 62 g/ha (large (Lg) crabgrass [4]; Postemergence, 62 g ai/ha, scale 0 to 100 (0 no effect, 100 complete control), read-out: Plant response rating, Crabgrass, Large): 10%
- pest or weed control at 125 g/ha (large (Lg) crabgrass [5]; 125 g ai/ha, read-out: Plant response rating, Crabgrass, Large): 100%
- pest or weed control at 500 g/ha (large (Lg) crabgrass [5]; 500 g ai/ha, read-out: Crabgrass, Large plant response rating): 100%
- pest or weed control at 500 g/ha (pigweed [6]; 500 g ai/ha, read-out: Plant response rating, Pigweed): 100%
- pest or weed control at 125 g/ha (pigweed [6]; 240 h, 125 g ai/ha, read-out: Pigweed plant response rating): 100%
- pest or weed control at 125 g/ha (giant foxtail [7]; 125 g ai/ha, read-out: Foxtail, Giant plant response rating): 90%
- pest or weed control at 500 g/ha (giant foxtail [7]; 500 g ai/ha, read-out: Plant response rating, Foxtail, Giant): 90%
- Crabgrass, Large plant response rating (large (Lg) crabgrass [8]; 125 g ai/ha): 90
- pest or weed control at 500 g/ha (large (Lg) crabgrass [8]; Digitaria sanguinalis, post-emergence, 240 h, 500 g ai/ha, read-out: Plant response rating, Crabgrass, Large): 100%
- pest or weed control at 16 g/ha (giant foxtail [9]; 16 g ai/ha, preemergence, scale 0 to 100 (0 no effect, 100 complete control), read-out: Foxtail, Giant plant response rating): 100%
- pest or weed control at 62 g/ha (giant foxtail [9]; 62 g ai/ha, preemergence, scale 0 (no effect) to 100 (complete control), read-out: Foxtail, Giant plant response rating): 100%
- pest or weed control at 125 g/ha (giant foxtail [9]; 125 g ai/ha, preemergence, scale 0 (no effect) to 100 (complete control), read-out: Foxtail, Giant plant response rating): 100%
- pest or weed control at 31 g/ha (giant foxtail [9]; Preemergence, 31 g ai/ha, scale 0 to 100, 0 no effect, 100 complete control, read-out: Plant response rating, Foxtail, Giant): 100%
